Assay results from US20250145596A1, “HETEROCYCLIC GLP-1 AGONISTS” (Gasherbrum Bio, Inc., priority 2022, published 2025).

The compounds below were run against T1, GLP-1 Receptor (Homo sapiens, UniProt P43220) (assay: GLP-1R agonist cAMP stimulation assay). Details: HEK293/CRE-Luc cell line stably expressing the GLP-1 Receptor; 30 min at 37° C.; cAMP dynamic 2 Kit.
T1 construct: host or cells: HEK293/CRE-Luc
Type: cell-based
Method: Activation of GLP-1 receptor is known to stimulate cyclic AMP (cAMP) production in cells which indicates primary coupling to the Gas subunit of the G protein heterotrimeric complex.
To optimize functional activity directed toward Gas coupling, a HEK293/CRE-Luc cell line developed by HDB stably expressing the GLP-1 Receptor was used. 200× concentration of compound working solutions were prepared (Agilent Technologies Bravo) with ½ log serial dilution in 384-well Echo LDV plate (Labcyte, Cat #LP-0200). 50 nL/well 200× concentration of compound working solutions were moved to 384-well white low volume plate (Greiner, Cat #784075) using Labcyte ECHO550. 1×10^5 cells/mL HEK293/GLPlR/CRE-LUC (HD Biosciences) cell suspensions prepared with assay buffer [DPBS containing 0.5 mM IBMX (Sigma, Cat #15879) and 0.1% BSA (GENVIEW, Cat #FA016-100g)], 10 μL cell suspensions were added to each well of previous generated assay plate which already contains 50 nL compound at 200× concentration using ThermoFisher Multidrop Combi (1000 cells/well). Seal the plate and incubate at 37° C. with 5% CO2 for 30 min.
After incubation the cAMP assay signal was generated using cAMP dynamic 2 Kit (Cisbio). 5 μL cAMP-d2 working solution was added to each well, followed with 5 μL Anti-cAMP antibody-cryptate working solution added to each well using ThermoFisher Multidrop Combi. Incubate at room temperature for 1 hour protected from light. Read the fluorescence at 665 and 615 nm with Reader PerkinElmer EnVision.
% Activity=100%×(mean RLU of test sample mean RLU of vehicle control)/(mean RLU of MAX control−mean RLU of vehicle control))

T1 sequence (P43220 24-463): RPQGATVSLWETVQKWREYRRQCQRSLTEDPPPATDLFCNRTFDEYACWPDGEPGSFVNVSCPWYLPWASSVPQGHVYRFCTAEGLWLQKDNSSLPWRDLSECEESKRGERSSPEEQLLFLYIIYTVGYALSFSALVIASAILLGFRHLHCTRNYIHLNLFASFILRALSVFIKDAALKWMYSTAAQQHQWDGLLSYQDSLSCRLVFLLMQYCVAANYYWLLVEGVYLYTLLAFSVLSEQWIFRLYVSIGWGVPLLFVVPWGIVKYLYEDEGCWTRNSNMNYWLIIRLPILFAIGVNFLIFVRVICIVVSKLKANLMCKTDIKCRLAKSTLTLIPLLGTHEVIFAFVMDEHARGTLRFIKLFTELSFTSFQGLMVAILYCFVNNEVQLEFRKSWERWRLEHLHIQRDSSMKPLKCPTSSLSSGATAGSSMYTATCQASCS

Structure (SMILES)	EC50
CC1(c2ccc(Cl)cc2F)Oc2cc(F)cc(C3CCN(Cc4ncc(-c5nnc(C(F)(F)F)[nH]5)cc4CC4(C#N)CC4)CC3)c2O1 (single isomer, unassigned) [Example 14, 1-{[2-({4-[2-(4-chloro-2-fluorophenyl)-6-fluoro-2-methyl-2H-1,3-benzodioxol-4-yl]piperidin-1-yl}methyl)-5-[5-(trifluoromethyl)-4H-1,2,4-triazol-3-yl]pyridin-3-yl]methyl}cyclopropane-1-carbonitrile]	< 1 nM
N#CC1(Cc2cc(-c3nnc(C(F)(F)F)[nH]3)cnc2CN2CCC(c3cccc4c3OC(c3ccc(Cl)cc3F)CO4)CC2)CC1 (stereo not drawn) [Example 38, 1-{[2-({4-[3-(4-chloro-2-fluorophenyl)-2,3-dihydro-1,4-benzodioxin-5-yl]piperidin-1-yl}methyl)-5-[5-(trifluoromethyl)-4H-1,2,4-triazol-3-yl]pyridin-3-yl]methyl}cyclopropane-1-carbonitrile]	< 1 nM
C[C@H]1CN(c2ccnc(OCc3ccc(Cl)cc3F)n2)CCN1Cc1ncc(-c2nnc(C(F)(F)F)[nH]2)cc1CC1(C#N)CC1 [Example 91]	1 to 100 nM
Cc1cc(-c2cnn(C)c(=O)c2)cnc1CN1CCC(c2cccc(OCc3ccc(Cl)cc3F)n2)CC1 [Example 100]	> 100 nM
CC1(c2ccc(Cl)cc2Cl)Oc2cccc(C3CCN(Cc4ncc(-c5nnc(C(F)(F)F)[nH]5)cc4CC4(C#N)CC4)CC3)c2O1 (single isomer, unassigned) [Example 2, 1-{[2-({4-[2-(2,4-dichlorophenyl)-2-methyl-2H-1,3-benzodioxol-4-yl]piperidin-1-yl}methyl)-5-[5-(trifluoromethyl)-4H-1,2,4-triazol-3-yl]pyridin-3-yl]methyl}cyclopropane-1-carbonitrile]	< 1 nM
CS(=O)(=O)Cc1cc(-c2nnc(C(F)(F)F)[nH]2)cnc1CN1CCC(c2cccc(OCc3ccc(Cl)cc3F)n2)CC1 [Example 57, 2-[(4-{6-[(4-chloro-2-fluorophenyl)methoxy]pyridin-2-yl}piperidin-1-yl)methyl]-3-(methanesulfonylmethyl)-5-[5-(trifluoromethyl)-4H-1,2,4-triazol-3-yl]pyridine]	1 to 100 nM
N#CC1(Cc2cc(-c3nnc(C(F)(F)F)[nH]3)cnc2CN2CCC(c3nc(OCc4ccc(Cl)cc4F)ncc3F)CC2)CC1 [Example 35, 1-({2-[(4-{2-[(4-chloro-2-fluorophenyl)methoxy]-5-fluoropyrimidin-4-yl}piperidin-1-yl)methyl]-5-[5-(trifluoromethyl)-4H-1,2,4-triazol-3-yl]pyridin-3-yl}methyl)cyclopropane-1-carbonitrile]	1 to 100 nM
C[C@]1(c2ccc(Cl)cc2F)Oc2cccc(C3CCN(Cc4ncc(C5CC5C(=O)O)cc4CC4(C#N)CC4)CC3)c2O1 (stereo partly drawn) [Example 67, 2-(6-((4-((S)-2-(4-chloro-2-fluorophenyl)-2-methylbenzo[d][1,3]dioxol-4-yl)piperidin-1-yl)methyl)-5-((1-cyanocyclopropyl)methyl)pyridin-3-yl)cyclopropane-1-carboxylic acid]	1 to 100 nM
COC(C)Cc1cc(-c2nnc(C(F)(F)F)[nH]2)cnc1CN1CCC(c2cccc3c2O[C@@](C)(c2ccc(Cl)cc2F)O3)CC1 (stereo partly drawn) [Example 81]	1 to 100 nM
C[C@]1(c2ccc(Cl)cc2F)Oc2cccc(C3CCN(Cc4ncc(/C=C/C(=O)O)cc4CC4(C#N)CC4)CC3)c2O1 [Example 20, (S,E)-3-(6-((4-(2-(4-chloro-2-fluorophenyl)-2-methylbenzo[d][1,3]dioxol-4-yl)piperidin-1-yl)methyl)-5-((1-cyanocyclopropyl)methyl)pyridin-3-yl)acrylic acid]	< 1 nM
CN(C)C(=O)Cc1cc(-c2nnc(C(F)(F)F)[nH]2)cnc1CN1CCC(c2cccc3c2O[C@@](C)(c2ccc(Cl)cc2F)O3)CC1 [Example 56, (S)-2-(2-((4-(2-(4-chloro-2-fluorophenyl)-2-methylbenzo[d][1,3]dioxol-4-yl)piperidin-1-yl)methyl)-5-(5-(trifluoromethyl)-4H-1,2,4-triazol-3-yl)pyridin-3-yl)-N,N-dimethylacetamide]	1 to 100 nM
CC1(c2ccc(Cl)cc2Cl)Oc2cccc(C3CCN(Cc4ncc(-c5nnc(C(F)(F)F)[nH]5)cc4CC4(C#N)CC4)CC3)c2O1 (single isomer, unassigned) [Example 3, 1-{[2-({4-[2-(2,4-dichlorophenyl)-2-methyl-2H-1,3-benzodioxol-4-yl]piperidin-1-yl}methyl)-5-[5-(trifluoromethyl)-4H-1,2,4-triazol-3-yl]pyridin-3-yl]methyl}cyclopropane-1-carbonitrile]	< 1 nM
C[C@]1(c2ccc(Cl)cc2F)Oc2cccc(C3CCN(Cc4ncc(-c5nnc(C#N)[nH]5)cc4CC4(C#N)CC4)CC3)c2O1 [Example 18, (S)-5-(6-((4-(2-(4-chloro-2-fluorophenyl)-2-methylbenzo[d][1,3]dioxol-4-yl)piperidin-1-yl)methyl)-5-((1-cyanocyclopropyl)methyl)pyridin-3-yl)-4H-1,2,4-triazole-3-carbonitrile]	< 1 nM
C[C@]1(c2ccc(Cl)cc2F)Oc2cccc(C3CCN(Cc4ncc(-c5noc(=O)[nH]5)cc4CC4(C#N)CC4)CC3)c2O1 [Example 73]	< 1 nM
C[C@]1(c2ccc(Cl)cc2F)Oc2c(F)ccc(C3CCN(Cc4ncc(-c5nnc(C(F)(F)F)[nH]5)cc4CC4(C#N)CC4)CC3F)c2O1 (single isomer, unassigned) [Example 30]	< 1 nM
C[C@H]1CN(c2ccc(F)c(OCc3ccc(Cl)cc3F)c2)CCN1Cc1ncc(-c2nnc(C(F)(F)F)[nH]2)cc1CC1(C#N)CC1 [Example 43, 1-[(2-{[(2S)-4-{3-[(4-chloro-2-fluorophenyl)methoxy]-4-fluorophenyl}-2-methylpiperazin-1-yl]methyl}-5-[5-(trifluoromethyl)-4H-1,2,4-triazol-3-yl]pyridin-3-yl)methyl]cyclopropane-1-carbonitrile]	< 1 nM
CC1(c2ccc(Cl)c(F)c2)Oc2cccc(C3CCN(Cc4ncc(-c5nnc(C(F)(F)F)[nH]5)cc4CC4(C#N)CC4)CC3)c2O1 (stereo not drawn) [Example 10, 1-{[2-({4-[2-(4-Chloro-3-fluorophenyl)-2-methyl-2H-1,3-benzodioxol-4-yl]piperidin-1-yl}methyl)-5-[5-(trifluoromethyl)-4H-1,2,4-triazol-3-yl]pyridin-3-yl]methyl}cyclopropane-1-carbonitrile]	< 1 nM
C[C@]1(c2ccc(Cl)cc2F)Oc2cccc(C3CCN(Cc4ncc(-c5nnc(C(F)F)[nH]5)cc4CC4(C#N)CC4)CC3)c2O1 [Example 17, 1-{[2-({4-[(2S)-2-(4-chloro-2-fluorophenyl)-2-methyl-2H-1,3-benzodioxol-4-yl]piperidin-1-yl}methyl)-5-[5-(difluoromethyl)-4H-1,2,4-triazol-3-yl]pyridin-3-yl]methyl}cyclopropane-1-carbonitrile]	< 1 nM
Cc1cc(-c2cn(C)nn2)cnc1CN1CCC(c2cccc3c2OC(C)(c2ccc(Cl)cc2F)O3)CC1 (stereo not drawn) [Example 94]	1 to 100 nM
Cc1nc(-c2nnc(C(F)(F)F)[nH]2)cnc1CN1CCC(c2cccc3c2O[C@@](C)(c2ccc(Cl)cc2F)O3)CC1 [Example 52, 2-({4-[(2S)-2-(4-chloro-2-fluorophenyl)-2-methyl-1,3-benzodioxol-4-yl]piperidin-1-yl}methyl)-3-methyl-5-[5-(trifluoromethyl)-4H-1,2,4-triazol-3-yl]pyrazine]	1 to 100 nM
Cc1cc(-c2noc(=O)[nH]2)cnc1CN1CCC(c2cccc(OCc3ccc(Cl)cc3F)n2)CC1 [Example 95]	> 100 nM
